Results published in PubChem BioAssay (NCI).
“And” between values parts separate entries of the source, which are not always exact repeats. Equal values may be shown once.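 Following 48 hours of exposure in 96-well plates, responses at five concentrations were used to interpolate endpoints linearly. The concentration for 50% growth inhibition is given as GI50. TGI marks complete inhibition of growth.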

Assays:
Experiment in all cases: NCI tumour cell line growth inhibition, 48 h
HT29 colon = test system: HT29 colon
LOX IMVI melanoma = test system: LOX IMVI melanoma
OVCAR-3 ovarian = test system: OVCAR-3 ovarian
NCI-H522 lung = test system: NCI-H522 lung
EKVX NSCLC = test system: EKVX NSCLC
SK-OV-3 ovarian = test system: SK-OV-3 ovarian
SNB-75 CNS = test system: SNB-75 CNS
A549 NSCLC = test system: A549 NSCLC
RPMI-8226 leukemia = test system: RPMI-8226 leukemia
A498 renal = test system: A498 renal
ACHN renal = test system: ACHN renal
SW-620 colon = test system: SW-620 colon
KM12 colon = test system: KM12 colon
K-562 leukemia = test system: K-562 leukemia
786-0 renal = test system: 786-0 renal
BT-549 breast = test system: BT-549 breast
TK-10 renal = test system: TK-10 renal
UACC-62 melanoma = test system: UACC-62 melanoma
PC-3 prostate = test system: PC-3 prostate
SF-268 CNS = test system: SF-268 CNS
UACC-257 melanoma = test system: UACC-257 melanoma
CCRF-CEM leukemia = test system: CCRF-CEM leukemia
U251 CNS = test system: U251 CNS
NCI-H226 lung = test system: NCI-H226 lung
SK-MEL-5 melanoma = test system: SK-MEL-5 melanoma
UO-31 renal = test system: UO-31 renal
HL-60(TB) leukemia = test system: HL-60(TB) leukemia
SF-295 CNS = test system: SF-295 CNS
T-47D breast = test system: T-47D breast
OVCAR-5 ovarian = test system: OVCAR-5 ovarian
OVCAR-4 ovarian = test system: OVCAR-4 ovarian
SN12C renal = test system: SN12C renal
HS 578T breast = test system: HS 578T breast
M14 melanoma = test system: M14 melanoma
IGROV1 ovarian = test system: IGROV1 ovarian
MOLT-4 leukemia = test system: MOLT-4 leukemia
HOP-92 NSCLC = test system: HOP-92 NSCLC
HCC-2998 colon = test system: HCC-2998 colon
HCT-116 colon = test system: HCT-116 colon
CAKI-1 renal = test system: CAKI-1 renal
DU-145 prostate = test system: DU-145 prostate
SK-MEL-2 melanoma = test system: SK-MEL-2 melanoma
NCI/ADR-RES ovarian = test system: NCI/ADR-RES ovarian
HOP-62 NSCLC = test system: HOP-62 NSCLC
SF-539 CNS = test system: SF-539 CNS
SK-MEL-28 melanoma = test system: SK-MEL-28 melanoma
COLO 205 colon = test system: COLO 205 colon
NCI-H23 lung = test system: NCI-H23 lung
OVCAR-8 ovarian = test system: OVCAR-8 ovarian
MCF7 breast = test system: MCF7 breast
MDA-MB-435 = test system: MDA-MB-435
MDA-MB-231 breast = test system: MDA-MB-231 breast
MALME-3M melanoma = test system: MALME-3M melanoma
RXF 393 renal = test system: RXF 393 renal
SR leukemia = test system: SR leukemia
HCT-15 colon = test system: HCT-15 colon
SNB-19 CNS = test system: SNB-19 CNS
NCI-H460 lung = test system: NCI-H460 lung

`COc1ccc(-c2cn[nH]c2-c2cc(OC)c(OC)c(OC)c2)cc1N` was tested, and the GI50 (HT29 colon) was < 10 nM and 33.9 nM, the TGI (HT29 colon) was greater than 100000 nM and the GI50 (LOX IMVI melanoma) was < 10 nM and 43.6 nM. The TGI (LOX IMVI melanoma) was greater than 100000 nM, the GI50 (OVCAR-3 ovarian) was < 10 nM and 28.1 nM and the GI50 (NCI-H522 lung) was less than 10 nM. For the same molecule, the GI50 (EKVX NSCLC) was < 10 nM and 67.3 nM, the TGI (EKVX NSCLC) was greater than 100000 nM and the GI50 (SK-OV-3 ovarian) was < 10 nM and 83.3 nM. It also gave a TGI (SK-OV-3 ovarian) greater than 100000 nM, a GI50 (SNB-75 CNS) of less than 10 nM and a TGI (SNB-75 CNS) greater than 100000 nM. For the same molecule, the GI50 (A549 NSCLC) was < 10 nM and 42.5 nM, the TGI (A549 NSCLC) was greater than 100000 nM and the GI50 (RPMI-8226 leukemia) was < 10 nM and 53.5 nM. The TGI (RPMI-8226 leukemia) was 30800 nM and 54100 nM, the GI50 (A498 renal) was less than 10 nM and the GI50 (ACHN renal) was < 10 nM and 44 nM. The TGI (ACHN renal) was greater than 100000 nM, the GI50 (SW-620 colon) was < 10 nM and 39.7 nM and the TGI (SW-620 colon) was greater than 100000 nM. The GI50 (KM12 colon) was < 10 nM and 26 nM, the TGI (KM12 colon) was greater than 100000 nM and the GI50 (K-562 leukemia) was less than 10 nM. For the same molecule, the TGI (K-562 leukemia) was greater than 100000 nM, the GI50 (786-0 renal) was < 10 nM and 61.1 nM and the TGI (786-0 renal) was 86500 nM and > 56600 nM. For the same molecule, the GI50 (BT-549 breast) was < 10 nM and 37.4 nM, the TGI (TK-10 renal) was greater than 100000 nM and the GI50 (UACC-62 melanoma) was less than 10 nM. The TGI (UACC-62 melanoma) was 70100 nM and > 100000 nM, the GI50 (PC-3 prostate) was < 10 nM and 33.9 nM and the TGI (PC-3 prostate) was greater than 100000 nM. The TGI (SF-268 CNS) was greater than 100000 nM, the GI50 (UACC-257 melanoma) was 28400 nM and the TGI (UACC-257 melanoma) was greater than 100000 nM. The GI50 (CCRF-CEM leukemia) was < 10 nM and 34.7 nM, the TGI (CCRF-CEM leukemia) was greater than 100000 nM and the GI50 (U251 CNS) was < 10 nM and 40.4 nM. The TGI (U251 CNS) was greater than 100000 nM, the TGI (NCI-H226 lung) was > 100000 nM and 56300 nM and the GI50 (SK-MEL-5 melanoma) was < 10 nM and 40.5 nM. For the same molecule, the GI50 (UO-31 renal) was 191 nM and 118 nM, the TGI (UO-31 renal) was greater than 100000 nM and the GI50 (HL-60(TB) leukemia) was < 10 nM and 24.8 nM. The TGI (HL-60(TB) leukemia) was < 10 nM and 83.4 nM, the GI50 (SF-295 CNS) was < 10 nM and 13.4 nM and the TGI (SF-295 CNS) was greater than 100000 nM. For the same molecule, the GI50 (T-47D breast) was 17100 nM and 25000 nM, the TGI (T-47D breast) was 77400 nM and > 100000 nM and the TGI (OVCAR-5 ovarian) was greater than 100000 nM. For the same molecule, the GI50 (OVCAR-4 ovarian) was 13 nM and 87.7 nM, the TGI (OVCAR-4 ovarian) was greater than 100000 nM and the GI50 (SN12C renal) was < 10 nM and 80.2 nM. The TGI (SN12C renal) was greater than 100000 nM, the GI50 (HS 578T breast) was < 10 nM and 23.3 nM and the TGI (HS 578T breast) was greater than 100000 nM. The GI50 (M14 melanoma) was < 10 nM and 24.7 nM, the TGI (M14 melanoma) was greater than 100000 nM and the GI50 (IGROV1 ovarian) was < 10 nM and 41.5 nM. For the same molecule, the TGI (IGROV1 ovarian) was greater than 100000 nM, the GI50 (MOLT-4 leukemia) was < 10 nM and 42.9 nM and the TGI (MOLT-4 leukemia) was greater than 100000 nM. The TGI (HOP-92 NSCLC) was greater than 100000 nM, the GI50 (HCC-2998 colon) was < 10 nM and 31.7 nM and the TGI (HCC-2998 colon) was 93600 nM and 32100 nM. For the same molecule, the GI50 (HCT-116 colon) was < 10 nM and 34.4 nM, the TGI (HCT-116 colon) was greater than 100000 nM and the GI50 (CAKI-1 renal) was < 10 nM and 32.4 nM. For the same molecule, the TGI (CAKI-1 renal) was greater than 100000 nM, the GI50 (DU-145 prostate) was < 10 nM and 50.8 nM and the TGI (DU-145 prostate) was greater than 100000 nM. For the same molecule, the TGI (SK-MEL-2 melanoma) was greater than 100000 nM, the GI50 (NCI/ADR-RES ovarian) was < 10 nM and 37.9 nM and the TGI (NCI/ADR-RES ovarian) was greater than 100000 nM. For the same molecule, the GI50 (HOP-62 NSCLC) was < 10 nM and 76.6 nM, the TGI (HOP-62 NSCLC) was greater than 100000 nM and the GI50 (SF-539 CNS) was less than 10 nM. The TGI (SF-539 CNS) was greater than 100000 nM, the TGI (SK-MEL-28 melanoma) was greater than 100000 nM and the GI50 (COLO 205 colon) was < 10 nM and 34.7 nM. The GI50 (NCI-H23 lung) was < 10 nM and 63.4 nM, the TGI (NCI-H23 lung) was greater than 100000 nM and the GI50 (OVCAR-8 ovarian) was < 10 nM and 51.9 nM. For the same molecule, the TGI (OVCAR-8 ovarian) was greater than 100000 nM, the GI50 (MCF7 breast) was < 10 nM and 26.6 nM and the TGI (MCF7 breast) was greater than 100000 nM. The GI50 (MDA-MB-435) was less than 10 nM, the TGI (MDA-MB-435) was < 10 nM and 30.9 nM and the GI50 (MDA-MB-231 breast) was < 10 nM and 63 nM. The TGI (MDA-MB-231 breast) was greater than 100000 nM, the TGI (MALME-3M melanoma) was greater than 100000 nM and the GI50 (RXF 393 renal) was 24.7 nM. It also gave a TGI (RXF 393 renal) greater than 100000 nM, a GI50 (SR leukemia) of less than 10 nM and a TGI (SR leukemia) greater than 100000 nM. The GI50 (HCT-15 colon) was < 10 nM and 29.8 nM, the TGI (HCT-15 colon) was greater than 100000 nM and the GI50 (SNB-19 CNS) was < 10 nM and 48.4 nM. For the same molecule, the TGI (SNB-19 CNS) was greater than 100000 nM, the GI50 (NCI-H460 lung) was < 10 nM and 34.3 nM and the TGI (NCI-H460 lung) was 13300 nM and > 38500 nM.
